Measurements: paper PMC10974507, “Design, Synthesis, Biological Evaluation and Molecular Docking of Novel F-18-Labeled Focal Adhesion Kinase Inhibitors as Potential Tumor Radiotracers” (Molecules, 2024)
One block for each compound: values may come before it.

Assays:
FAK = FAK (Homo sapiens, UniProt Q05397); test: FAK inhibitory assay (homogeneous time-resolved fluorescence kinase assay); assay type: biochemical; details: in vitro enzyme activity against FAK
Experimental: The inhibitory activities of the 7a–7c against FAK were tested using a homogeneous time-resolved fluorescence methodology-based kinase assay.
(§1) The FAK kinase inhibition test and the partition coefficient test were conducted according to a previously reported method.

[1] = tested on: mice bearing S-180 tumors; test: Biodistribution in S-180 tumor-bearing mice; assay type: in vivo, Kunming mice; details: for Biodistribution, Tumor (tumor uptake): S-180 tumor; for Biodistribution, Tumor (tumor uptake) / Biodistribution, Blood / Biodistribution, Bone / Biodistribution, Brine / Biodistribution, Heart / Biodistribution, Kidney / Biodistribution, Large intestine / Biodistribution, Liver / Biodistribution, Lung / Biodistribution, Muscle / Biodistribution, Small intestine / Biodistribution, Spleen / Biodistribution, Stomach: mean ± SD, n = 3
Experimental: Kunming mice (female, 18−22 g) and S180 ascites mice were purchased from Beijing Xinglong Animal Technology Co., Ltd., Beijing, China and Beijing Vital River Animal Technology Co., Ltd., Beijing, China, respectively. All the mice-concerned experiments were conducted in strict accordance with the “Guidelines for Humane Treatment of Laboratory Animals”, and the whole process was approved by the Animal Protection Committee of Beijing Normal University (Approval Code: BNUCC-EAW-2023-16; Approval date: 14 June 2023). The specific experimental operations were in accordance with those methods described previously.

[2] = Octanol/water partition coefficient determination; assay type: physicochemical; details: pH 7.4, read-out: logD7.4
Experimental: The partition coefficients of the radiotracers [^18F]7a and [^18F]7c were determined to evaluate the octanol/water partition properties.
as §1

[3] = 30 min after intravenous injection
[4] = 60 min after intravenous injection
[5] = 120 min after intravenous injection

Sequence of FAK (Q05397 whole entry, species assumed): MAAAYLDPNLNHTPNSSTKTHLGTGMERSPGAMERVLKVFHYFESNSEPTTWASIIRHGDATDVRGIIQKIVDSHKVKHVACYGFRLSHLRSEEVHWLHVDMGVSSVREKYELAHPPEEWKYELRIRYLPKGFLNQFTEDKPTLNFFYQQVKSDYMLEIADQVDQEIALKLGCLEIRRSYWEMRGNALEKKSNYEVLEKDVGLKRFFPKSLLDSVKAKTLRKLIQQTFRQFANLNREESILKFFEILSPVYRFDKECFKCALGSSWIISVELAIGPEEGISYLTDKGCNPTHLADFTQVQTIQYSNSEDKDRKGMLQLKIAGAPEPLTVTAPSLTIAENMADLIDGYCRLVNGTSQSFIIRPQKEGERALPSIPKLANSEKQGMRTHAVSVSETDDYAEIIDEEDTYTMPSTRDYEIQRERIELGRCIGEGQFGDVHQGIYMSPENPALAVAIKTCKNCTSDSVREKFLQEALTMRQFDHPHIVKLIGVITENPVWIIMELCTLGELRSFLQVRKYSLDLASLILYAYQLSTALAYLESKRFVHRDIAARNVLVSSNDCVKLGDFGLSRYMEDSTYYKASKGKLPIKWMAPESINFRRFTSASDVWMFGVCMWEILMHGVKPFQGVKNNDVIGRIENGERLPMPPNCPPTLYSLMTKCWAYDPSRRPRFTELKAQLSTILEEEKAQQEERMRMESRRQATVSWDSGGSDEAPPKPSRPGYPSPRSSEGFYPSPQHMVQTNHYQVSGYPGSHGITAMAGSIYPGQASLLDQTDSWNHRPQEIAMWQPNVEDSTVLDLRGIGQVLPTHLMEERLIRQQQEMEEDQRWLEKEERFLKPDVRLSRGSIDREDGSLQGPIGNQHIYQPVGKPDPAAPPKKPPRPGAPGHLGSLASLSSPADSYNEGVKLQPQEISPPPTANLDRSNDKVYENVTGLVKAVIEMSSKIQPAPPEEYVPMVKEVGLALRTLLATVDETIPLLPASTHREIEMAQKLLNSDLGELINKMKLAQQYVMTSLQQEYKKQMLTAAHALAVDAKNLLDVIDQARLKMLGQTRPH

- IC50 (FAK): 0.00559 µM
Structure (SMILES): CNC(=O)c1cc(N2CCS(=O)(=O)CC2)ccc1Nc1nc(Nc2ccc(OCCOCCOCCF)cc2)ncc1Br [Compound 7a, 2-((5-bromo-2-((4-(2-(2-(2-fluoroethoxy)ethoxy)ethoxy)phenyl)amino)pyrimidin-4-yl)amino)-5-(1,1-dioxidothiomorpholino)-N-methylbenzamide]

- IC50 (FAK): 0.0246 µM
Structure (SMILES): CNC(=O)c1cc(N2CCS(=O)(=O)CC2)ccc1Nc1nc(Nc2ccc(OCCOCCOCCF)c(C(=O)N3CCN(C(C)=O)CC3)c2)ncc1Br [Compound 7b, 2-((2-((3-(4-acetylpiperazine-1-carbonyl)-4-(2-(2-(2-fluoroethoxy)ethoxy)ethoxy)phenyl)amino)-5-bromopyrimidin-4-yl)amino)-5-(1,1-dioxidothiomorpholino)-N-methylbenzamide]

- IC50 (FAK): 0.00127 µM
- Biodistribution, Tumor (tumor uptake) [1, 3]: 6.58 ± 0.46 % ID/g
Structure (SMILES): CNC(=O)c1cc(N2CCS(=O)(=O)CC2)ccc1Nc1nc(Nc2ccc(OCCOCCOCCF)c(-c3cnn(C)c3)c2)ncc1Br [Compound 7c, 2-((5-bromo-2-((4-(2-(2-(2-fluoroethoxy)ethoxy)ethoxy)-3-(1-methyl-1H-pyrazol-4-yl)phenyl)amino)pyrimidin-4-yl)amino)-5-(1,1-dioxidothiomorpholino)-N-methylbenzamide]

- IC50 (FAK): 1.97 µM
Structure (SMILES): CNC(=O)c1cc(N2CCN(C(C)=O)CC2)ccc1Nc1nc(Nc2ccc(OCCOCCOCCF)c(C(=O)N3CCOCC3)c2)ncc1Br [Compound 7d, 5-(4-acetylpiperazin-1-yl)-2-((5-bromo-2-((4-(2-(2-(2-fluoroethoxy)ethoxy)ethoxy)-3-(morpholine-4-carbonyl)phenyl)amino)pyrimidin-4-yl)amino)-N-methylbenzamide]

- IC50 (FAK): 0.643 µM
Structure (SMILES): CNC(=O)c1cc(N2CCN(C(C)=O)CC2)ccc1Nc1nc(Nc2ccc(OCCOCCOCCF)c(-c3cnn(C)c3)c2)ncc1Br [Compound 7e, 5-(4-acetylpiperazin-1-yl)-2-((5-bromo-2-((4-(2-(2-(2-fluoroethoxy)ethoxy)ethoxy)-3-(1-methyl-1H-pyrazol-4-yl)phenyl)amino)pyrimidin-4-yl)amino)-N-methylbenzamide]

- IC50 (FAK): 0.01 µM
Structure (SMILES): CNC(=O)c1cc(N2CCOCC2)ccc1Nc1nc(Nc2ccc(OCCOCCOCCF)c(C(=O)N3CCN(C(C)=O)CC3)c2)ncc1Br [Compound 7f]

- IC50 (FAK): 1.24 µM
Structure (SMILES): CCN1CCN(c2ccc(Nc3nc(Nc4ccc(OCCOCCOCCF)c(-c5cnn(C)c5)c4)ncc3Br)c(C(=O)NC)c2)CC1 [Compound 7g, 2-((5-bromo-2-((4-(2-(2-(2-fluoroethoxy)ethoxy)ethoxy)-3-(1-methyl-1H-pyrazol-4-yl)phenyl)amino)pyrimidin-4-yl)amino)-5-(4-ethylpiperazin-1-yl)-N-methylbenzamide]

- logD [2]: 0.96
- Tumor/blood ratio [1, 3]: 1.34
- Tumor/muscle ratio [1, 3]: 0.80
- Biodistribution, Blood [1, 3]: 0.98 ± 0.26 % ID/g
- Biodistribution, Bone [1, 3]: 2.32 ± 0.45 % ID/g
- Biodistribution, Brine [1, 3]: 0.57 ± 0.08 % ID/g
- Biodistribution, Heart [1, 3]: 3.05 ± 0.29 % ID/g
- Biodistribution, Kidney [1, 3]: 3.02 ± 1.70 % ID/g
- Biodistribution, Large intestine [1, 3]: 1.46 ± 0.13 % ID/g
- Biodistribution, Liver [1, 3]: 23.49 ± 4.29 % ID/g
- Biodistribution, Lung [1, 3]: 33.55 ± 5.59 % ID/g
- Biodistribution, Muscle [1, 3]: 1.63 ± 0.34 % ID/g
- Biodistribution, Small intestine [1, 3]: 2.95 ± 0.17 % ID/g
- Biodistribution, Spleen [1, 3]: 5.43 ± 1.12 % ID/g
- Biodistribution, Stomach [1, 3]: 0.92 ± 0.28 % ID/g
- Tumor/blood ratio [1, 4]: 1.45
- Tumor/muscle ratio [1, 4]: 0.56
- Biodistribution, Blood [1, 4]: 0.96 ± 0.10 % ID/g
- Biodistribution, Bone [1, 4]: 2.96 ± 0.43 % ID/g
- Biodistribution, Brine [1, 4]: 1.08 ± 0.13 % ID/g
- Biodistribution, Heart [1, 4]: 1.12 ± 0.03 % ID/g
- Biodistribution, Kidney [1, 4]: 1.47 ± 0.18 % ID/g
- Biodistribution, Large intestine [1, 4]: 1.36 ± 0.36 % ID/g
- Biodistribution, Liver [1, 4]: 23.16 ± 2.65 % ID/g
- Biodistribution, Lung [1, 4]: 28.77 ± 5.72 % ID/g
- Biodistribution, Muscle [1, 4]: 2.50 ± 0.59 % ID/g
- Biodistribution, Small intestine [1, 4]: 1.58 ± 0.35 % ID/g
- Biodistribution, Spleen [1, 4]: 2.53 ± 0.21 % ID/g
- Biodistribution, Stomach [1, 4]: 0.80 ± 0.21 % ID/g
- Tumor/blood ratio [1, 5]: 0.89
- Tumor/muscle ratio [1, 5]: 4.30
- Biodistribution, Blood [1, 5]: 0.92 ± 0.15 % ID/g
- Biodistribution, Bone [1, 5]: 1.27 ± 0.42 % ID/g
- Biodistribution, Brine [1, 5]: 0.16 ± 0.01 % ID/g
- Biodistribution, Heart [1, 5]: 0.85 ± 0.09 % ID/g
- Biodistribution, Kidney [1, 5]: 1.16 ± 0.06 % ID/g
- Biodistribution, Large intestine [1, 5]: 4.5 ± 1.91 % ID/g
- Biodistribution, Liver [1, 5]: 8.86 ± 3.14 % ID/g
- Biodistribution, Lung [1, 5]: 11.63 ± 1.25 % ID/g
- Biodistribution, Muscle [1, 5]: 0.20 ± 0.03 % ID/g
- Biodistribution, Small intestine [1, 5]: 0.96 ± 0.29 % ID/g
- Biodistribution, Spleen [1, 5]: 5.58 ± 1.06 % ID/g
- Biodistribution, Stomach [1, 5]: 1.16 ± 0.40 % ID/g
- Biodistribution, Tumor (tumor uptake) [1, 3]: 1.31 ± 0.07 % ID/g
- Biodistribution, Tumor (tumor uptake) [1, 4]: 1.39 ± 0.30 % ID/g
- Biodistribution, Tumor (tumor uptake) [1, 5]: 0.86 ± 0.34 % ID/g
Structure (SMILES): CNC(=O)c1cc(N2CCS(=O)(=O)CC2)ccc1Nc1nc(Nc2ccc(OCCOCCOCC[18F])cc2)ncc1Br [[^18F]7a]

- logD [2]: 0.74
- Tumor/blood ratio [1, 3]: 2.40
- Tumor/muscle ratio [1, 3]: 1.88
- Biodistribution, Blood [1, 3]: 2.74 ± 0.11 % ID/g
- Biodistribution, Bone [1, 3]: 4.12 ± 0.39 % ID/g
- Biodistribution, Brine [1, 3]: 2.81 ± 0.06 % ID/g
- Biodistribution, Heart [1, 3]: 3.46 ± 0.65 % ID/g
- Biodistribution, Kidney [1, 3]: 4.00 ± 0.25 % ID/g
- Biodistribution, Large intestine [1, 3]: 6.18 ± 0.60 % ID/g
- Biodistribution, Liver [1, 3]: 17.64 ± 4.45 % ID/g
- Biodistribution, Lung [1, 3]: 120.47 ± 15.08 % ID/g
- Biodistribution, Muscle [1, 3]: 3.50 ± 0.18 % ID/g
- Biodistribution, Small intestine [1, 3]: 13.02 ± 1.93 % ID/g
- Biodistribution, Spleen [1, 3]: 16.32 ± 1.26 % ID/g
- Biodistribution, Stomach [1, 3]: 5.81 ± 1.02 % ID/g
- Tumor/blood ratio [1, 4]: 1.71
- Tumor/muscle ratio [1, 4]: 2.09
- Biodistribution, Blood [1, 4]: 3.43 ± 0.04 % ID/g
- Biodistribution, Bone [1, 4]: 4.86 ± 0.30 % ID/g
- Biodistribution, Brine [1, 4]: 3.12 ± 0.66 % ID/g
- Biodistribution, Heart [1, 4]: 2.53 ± 0.56 % ID/g
- Biodistribution, Kidney [1, 4]: 3.82 ± 0.44 % ID/g
- Biodistribution, Large intestine [1, 4]: 4.47 ± 0.44 % ID/g
- Biodistribution, Liver [1, 4]: 19.21 ± 3.81 % ID/g
- Biodistribution, Lung [1, 4]: 128.13 ± 6.74 % ID/g
- Biodistribution, Muscle [1, 4]: 2.80 ± 0.49 % ID/g
- Biodistribution, Small intestine [1, 4]: 5.73 ± 0.82 % ID/g
- Biodistribution, Spleen [1, 4]: 8.48 ± 0.10 % ID/g
- Biodistribution, Stomach [1, 4]: 1.14 ± 0.16 % ID/g
- Tumor/blood ratio [1, 5]: 1.37
- Tumor/muscle ratio [1, 5]: 2.16
- Biodistribution, Blood [1, 5]: 3.79 ± 0.46 % ID/g
- Biodistribution, Bone [1, 5]: 10.70 ± 1.01 % ID/g
- Biodistribution, Brine [1, 5]: 2.01 ± 0.18 % ID/g
- Biodistribution, Heart [1, 5]: 3.12 ± 0.25 % ID/g
- Biodistribution, Kidney [1, 5]: 3.50 ± 0.37 % ID/g
- Biodistribution, Large intestine [1, 5]: 48.07 ± 9.85 % ID/g
- Biodistribution, Liver [1, 5]: 28.36 ± 5.74 % ID/g
- Biodistribution, Lung [1, 5]: 125.29 ± 16.25 % ID/g
- Biodistribution, Muscle [1, 5]: 2.04 ± 0.12 % ID/g
- Biodistribution, Small intestine [1, 5]: 7.49 ± 1.46 % ID/g
- Biodistribution, Spleen [1, 5]: 24.70 ± 4.31 % ID/g
- Biodistribution, Stomach [1, 5]: 3.32 ± 0.31 % ID/g
- Biodistribution, Tumor (tumor uptake) [1, 3]: 6.58 ± 0.46 % ID/g
- Biodistribution, Tumor (tumor uptake) [1, 4]: 5.85 ± 0.28 % ID/g
- Biodistribution, Tumor (tumor uptake) [1, 5]: 5.18 ± 0.68 % ID/g
Structure (SMILES): CNC(=O)c1cc(N2CCS(=O)(=O)CC2)ccc1Nc1nc(Nc2ccc(OCCOCCOCC[18F])c(-c3cnn(C)c3)c2)ncc1Br [[^18F]7c]
